Read-outs that look alike come from different tables or passages of the source.
Target: acetylcholinesterase (Homo sapiens, UniProt P22303)
Test: Cholinesterase Inhibition Assay (photometric method of Ellman et al.)
Assay type: biochemical
[1] = photometric method of Ellman et al., read-out: Cholinesterase Inhibition IC50

Chain of acetylcholinesterase (P22303 32-614): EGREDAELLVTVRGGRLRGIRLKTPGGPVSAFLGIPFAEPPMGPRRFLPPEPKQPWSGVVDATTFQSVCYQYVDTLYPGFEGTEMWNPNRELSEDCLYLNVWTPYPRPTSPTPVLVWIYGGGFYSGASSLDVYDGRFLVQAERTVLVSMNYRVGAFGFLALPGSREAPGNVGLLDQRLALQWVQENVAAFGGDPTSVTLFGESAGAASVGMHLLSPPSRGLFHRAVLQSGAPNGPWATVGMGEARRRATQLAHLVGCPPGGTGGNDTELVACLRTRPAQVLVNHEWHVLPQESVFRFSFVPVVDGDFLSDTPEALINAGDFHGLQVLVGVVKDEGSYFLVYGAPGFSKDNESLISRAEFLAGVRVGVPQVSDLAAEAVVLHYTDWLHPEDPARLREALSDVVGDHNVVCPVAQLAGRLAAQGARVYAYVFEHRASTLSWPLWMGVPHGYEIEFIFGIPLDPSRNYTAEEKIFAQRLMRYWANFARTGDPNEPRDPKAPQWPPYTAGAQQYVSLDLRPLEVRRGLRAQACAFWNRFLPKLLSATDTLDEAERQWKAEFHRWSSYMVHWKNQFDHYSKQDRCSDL

Structure (SMILES)	IC50 [1]	IC50
c1ccc2c3c(ncc2c1)CCCN3 [1,2,3,4-Tetrahydrobenzo[c]-1,5-naphthyridine]	61 µM	
O=C(Cc1ccccc1)N1CCCc2ncc3ccccc3c21 [1-(Phenylacetyl)-1,2,3,4-tetrahydrobenzo[c]-1,5-naphthyridine]	320 µM	
CN1CCN(C2=Nc3c(ncc4ccccc34)CC2)CC1 [3,4-Dihydro-2-(4-methyl-1-piperazinyl)benzo[c]-1,5-naphthyridine hemihydrate]		840 µM
